Results reported in patent US20150105349A1, “(R)-(-)-1,2-propanediol compositions and methods” (priority 2013, published 2015).
Where two headings read alike, the source gives them in different places.

Key:
humans = conditions: based on intravenous infusion studies; cited from earlier work
rodents = conditions: oral; cited from earlier work
[1] = tested on: dorsal surface of the tongue; conditions: 6 subjects; 100-fold variation in individual sensitivity; cited from earlier work
philtrum skin [2] = assay: philtrum skin cooling bioassay (subjective coolness rating 0-3); format: in vivo, human; conditions: for Ratio of AUC 75/25% R/S to 25/75% R/S (fold increase in cooling activity): 49% distilled water, 1% ethanol
Text: The term “alcoholic solvent” refers to a chemical with one to four carbons with at least one hydroxyl group attached to a carbon atom. A reliable place for topical application is the skin above the upper lip (above the vermilion border of the lips), on the philtrum, lateral to the philtrum until the nasolabial folds, and on the lower nostrils (subnasale). This part of the face is known to be densely innervated with cold receptors, second only to the surfaces of the eyeball and anogenitalia. Tingling, cool and cold sensations from the skin may be experienced and rated for time of onset and intensity.
The intervals for recording sensations are 5 to 10 minutes, until two successive zeros are obtained. The results (shown in the Figures) are averaged values of 4 to 6 separate trials in the same individual. The data are plotted using SigmaPlot (Systat Software, Point Richmond, Calif.) and a smoothing function with a negative exponential was used for analysis and statistical fit of the results. The onset of drug action is taken as the time to reach 2 units of coolness intensity, and offset of drug action is the time when coolness intensity drops below 2, after previously surpassing 2 units. […] The duration of cooling action is defined as the offset time minus the onset time and the primary index of effect. As described in Examples, the test compounds were tested at 2 to 10 mg/mL of vehicle.
For assays on the skin, the cooling agent(s) was dissolved in the alcoholic solvent to yield a 2, 2.5, 3, 5 or 10 mg/mL solution. Using a cotton-tipped applicator (e.g. Q-tips®) 0.10 to 0.25 mL of the test solution was applied to the skin above the upper lip, on the philtrum, and lateral to the philtrum up to the nasolabial folds, and the onset and duration of cooling sensations noted. […] The interval for recording sensations was at 5 to 10 minute intervals, until at least two successive zeros were obtained. The results were averaged values of 3 to 6 separate trials in the same individual. The “onset” is the time taken to reach a coolness intensity value of 2. […] The “off-set” is when the coolness intensity drops below 2, and the duration is the time of off-set minus the time of onset. The area under the curve (AUC) gives an estimate of the intensity and duration of drug action and can be obtained from the plotted data using SigmaPlot (Systat Software, Point Richmond, Calif.). The AUC unit is the product of cooling intensity x min.

[3] = target: T1, cloned hTRPM8 channel (human TRPM8 gene, expressed in CHO cells) (Homo sapiens, UniProt Q7Z2W7); assay: agonist activity on cloned hTRPM8 channel, Fluo-8 calcium kit, FLIPR; format: cell-based
T1 construct: host or cells: CHO cells
T1 sequence (Q7Z2W7 whole entry): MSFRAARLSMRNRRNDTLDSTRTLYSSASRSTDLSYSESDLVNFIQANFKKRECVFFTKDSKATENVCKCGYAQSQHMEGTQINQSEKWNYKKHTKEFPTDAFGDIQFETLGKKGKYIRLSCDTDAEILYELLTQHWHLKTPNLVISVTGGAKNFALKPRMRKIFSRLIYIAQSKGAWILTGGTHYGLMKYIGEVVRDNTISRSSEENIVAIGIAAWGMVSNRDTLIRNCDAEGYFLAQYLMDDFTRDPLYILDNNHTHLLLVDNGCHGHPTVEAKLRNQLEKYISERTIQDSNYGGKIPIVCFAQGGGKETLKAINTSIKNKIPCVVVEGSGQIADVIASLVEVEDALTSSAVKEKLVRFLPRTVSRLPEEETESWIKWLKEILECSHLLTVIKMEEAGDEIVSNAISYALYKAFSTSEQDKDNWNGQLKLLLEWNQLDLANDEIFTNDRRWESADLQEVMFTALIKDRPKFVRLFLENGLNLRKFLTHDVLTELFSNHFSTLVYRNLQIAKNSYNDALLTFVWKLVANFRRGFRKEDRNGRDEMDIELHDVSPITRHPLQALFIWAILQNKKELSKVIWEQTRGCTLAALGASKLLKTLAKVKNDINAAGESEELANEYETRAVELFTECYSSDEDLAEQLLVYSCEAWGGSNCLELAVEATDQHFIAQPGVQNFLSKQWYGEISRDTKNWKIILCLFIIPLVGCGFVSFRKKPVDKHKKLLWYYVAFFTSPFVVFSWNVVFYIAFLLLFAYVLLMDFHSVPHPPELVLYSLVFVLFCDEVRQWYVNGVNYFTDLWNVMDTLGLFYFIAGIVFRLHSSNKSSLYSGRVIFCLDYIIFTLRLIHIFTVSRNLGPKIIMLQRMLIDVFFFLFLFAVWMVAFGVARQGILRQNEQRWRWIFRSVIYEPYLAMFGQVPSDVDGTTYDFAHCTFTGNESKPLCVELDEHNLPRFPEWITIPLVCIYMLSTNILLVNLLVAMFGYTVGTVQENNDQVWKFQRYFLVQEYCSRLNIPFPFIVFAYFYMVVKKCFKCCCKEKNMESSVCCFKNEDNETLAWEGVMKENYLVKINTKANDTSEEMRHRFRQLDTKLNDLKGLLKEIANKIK
Description: The in vitro effects of test articles were evaluated on cloned hTRPM8 channel (encoded by the human TRPM8 gene, expressed in CHO cells) using a Fluo-8 calcium kit and a Fluorescence Imaging Plate Reader (FLIPR^TETRA™) instrument. […] The total number of carbons in these trialkylphosphine oxides ranged from 12 to 15.
To further examine solvent-receptor interactions, stock solutions of 1-7 [1-(Diisopropyl-phosphinoyl)-heptane] were prepared in dimethyl sulfoxide (DMSO) or DMSO containing 10% or 30% by volume of the three isomers of 1,2-propanediol, (R/S-PD, R-PD, and S-PD) and stored frozen. Six dose levels were tested ranging from 0.003 to 3 μM. Ten μl of the test article solution were added to 40 μl of cells in HBPS in glass-lined 384-well compound plates, and placed into the FLIPR instrument for the fluorescence readout (Molecular Devices Corporation, Union City, Calif.).

[4] = tested on: periorbital skin and skin above the cheekbone; assay: cosmetic wipe over periorbital skin and skin above the cheekbone, six female subjects; format: in vivo, human; conditions: 10 mg/mL in water (50%), 10% (S)-, 40% (R)-1,2-propanediol
Description: Six female subjects working at a cosmetics company volunteered to try topical applications of 1-7 and/or 1-8, formulated at 10 mg/mL in water (50%) and 10% (S)-1,2-propanediol, 40% (R)-1,2-propanediol wt/wt. The liquid was put on a cotton square and wiped over the periorbital skin and the skin above the cheekbone. All the subjects remarked on a refreshing coolness on the skin at the sites of application within 2 min after application. There was a “wow” effect, that was considered pleasant and stimulating. […] Four of the six subjects said they felt more “awake and energetic.”

[5] = tested on: axillary skin lesion of plaque psoriasis (itch, burning); assay: topical application to axillary plaque psoriasis lesion, one subject; format: in vivo, human; conditions: 2% in 1% ethanol-99% (R)-1,2-propanediol, swab stick, first application at night
Text: A person with an 8-year history of plaque psoriasis complained of an axillary skin lesion that itched, had burning sensations, and kept them awake at night. Their condition was severe and chronic. Their parent complained that they had to vacuum their bedroom every day in order to remove flaking skin debris. […] They volunteered to try CPS-148, 2% dissolved in 1% ethanol-99% (R)-1,2-propanediol, and was given instructions on how to apply the solution to their site of itch with a swab stick (Q-tip™). They claimed after the first time of application at night the burning sensations and itch disappeared within 5 to 10 min and they were able to have a good nights sleep. They continued to use the solution on an “as-needed basis” for one month and claimed that they slept much better than before.

[6] = tested on: itch (contact dermatitis) on the scalp; assay: topical application to scalp itch (contact dermatitis after hair dye), one individual; format: in vivo, human; conditions: 5 mg/mL in 1% ethanol-99% (R)-1,2-propanediol, Yorker spout bottle
Description: An individual developed intense itch (contact dermatitis) on the scalp at the base of the skull after use of hair dye. A cotton-tipped stick was used to apply CPS-410 or CPS-412, 5 mg/mL dissolved in a 1% ethanol-99% (R)-1,2-propanediol, to the site of itch. The itch sensations were suppressed within 5 min after application of either solution and this effect lasted for at least 8 hr. In a second experiment, the solutions were applied using a plastic bottle with a conical Yorker spout. This allowed more precise droplet delivery of the solution to the site of itch. […] The advantage of liquid formulation is the ease of uniform delivery to the inflamed site, a method not achievable with cream or ointment. Itch symptoms of hair and fur occur in seborrheic dermatitis, psoriasis, insect bites, canine pruritus, and allergic dermatitis. Liquid formulations containing (R)-1,2-propanediol and a cooling agent may be therapeutically valuable in these conditions.

philtrum skin [7] = assay: philtrum skin cooling bioassay (subjective coolness rating 0-3); format: in vivo, human
TRPM8 receptor = TRPM8 receptor (Homo sapiens, UniProt Q7Z2W7); conditions: cited from earlier work
Chain of TRPM8 receptor (Q7Z2W7 whole entry): as above

[8] = 10 mg/mL in (R)-1,2-propanediol
[9] = TRPM8 receptor assay, read-out: EC50 μM (95% C, L.)

CC(O)CO (racemic) [racemic 1,2-propanediol]
estimated safe dose (humans): 1 g per kg body weight per day | median lethal dose (rodents): about 25 mL/kg of body weight

CC(C)[C@@H]1CC[C@@H](C)C[C@H]1O (single isomer, unassigned) [(−)-menthol, reference compound]
average threshold for cooling on tongue (Threshold, μg) [1]: 0.25 µg | cooling duration (philtrum skin [2]; 10 mg/mL in 1,3-propanediol): 13 ± 1 min | cooling duration (philtrum skin [2]; [8]): 21 ± 2 min

CCCCCP(=O)(C(C)C)C(C)C [1-5]
Potency Relative to I-menthol ([3]; TRPM8 receptor assay): 0.7 | EC50 [3, 9]: 5.6 µM | Ratio of AUC 75/25% R/S to 25/75% R/S (fold increase in cooling activity) (philtrum skin [2]): 1.5

CCCCCCP(=O)(C(C)C)C(C)C [1-6]
Potency Relative to I-menthol ([3]; TRPM8 receptor assay): 1.6 | EC50 [3, 9]: 2.4 µM | Ratio of AUC 75/25% R/S to 25/75% R/S (fold increase in cooling activity) (philtrum skin [2]): 1.7

CCCCCCCP(=O)(C(C)C)C(C)C [1-7, 1-(Diisopropyl-phosphinoyl)-heptane]
ratio of the EC50 for the R versus S enantiomers of 1,2-propanediol ([3]; C.L. overlap): about 2 | EC50 ([3]; HBPS, 30% volume series, read-out: EC50 (95% C.L.)): 1.6 µM | Potency Relative to I-menthol ([3]; TRPM8 receptor assay): 5.4 | EC50 [3, 9]: 0.7 µM | EC50 ([3]; stock in DMSO containing 30% by volume R-PD, read-out: EC50 (95% C.L.)): 2.2 µM | EC50 ([3]; stock in DMSO containing 30% by volume R/S-PD, read-out: EC50 (95% C.L.)): 2.9 µM | EC50 ([3]; stock in DMSO containing 30% by volume S-PD, read-out: EC50 (95% C.L.)): 4.4 µM | irritation or redness on the skin after applications [4]: no irritation or redness | time facial skin felt cool and dry after application ([4]; all subjects): at least one hour | Ratio of AUC 75/25% R/S to 25/75% R/S (fold increase in cooling activity) (philtrum skin [2]): 1.6

CCCCCCCCCP(=O)(C(C)C)C(C)C [1-9]
Potency Relative to I-menthol ([3]; TRPM8 receptor assay): 4.0 | EC50 [3, 9]: 0.9 µM

CCCCP(=O)(C(C)CC)C(C)CC (stereo not drawn) [2-4]
Potency Relative to I-menthol ([3]; TRPM8 receptor assay): 0.3 | EC50 [3, 9]: 14.5 µM | Ratio of AUC 75/25% R/S to 25/75% R/S (fold increase in cooling activity) (philtrum skin [2]): 1.9

CCCCCP(=O)(C(C)CC)C(C)CC (stereo not drawn) [2-5]
Potency Relative to I-menthol ([3]; TRPM8 receptor assay): 2.2 | EC50 [3, 9]: 1.7 µM | Ratio of AUC 75/25% R/S to 25/75% R/S (fold increase in cooling activity) (philtrum skin [2]): 1.4

CCCCCCCCP(=O)(C(C)CC)C(C)CC (stereo not drawn) [2-8]
Potency Relative to I-menthol ([3]; TRPM8 receptor assay): 2.9 | EC50 [3, 9]: 1.3 µM

CCCCCCP(=O)(C(C)CC)C(C)CC (stereo not drawn) [CPS-147, 1-(Di-sec-butyl-phosphinoyl)-hexane]
Potency Relative to I-menthol ([3]; TRPM8 receptor assay): 4.7 | EC50 [3, 9]: 0.8 µM | Ratio of AUC 75/25% R/S to 25/75% R/S (fold increase in cooling activity) (philtrum skin [2]): 1.6

CCCCCCCP(=O)(C(C)CC)C(C)CC (stereo not drawn) [CPS-148, 1-(Di-sec-butyl-phosphinoyl)-heptane]
time to disappearance of burning sensations and itch [5]: 5 to 10 min | agonism at the TRPM8 ion channel [3]: activates TRPM8 | Potency Relative to I-menthol ([3]; TRPM8 receptor assay): 3.4 | EC50 [3, 9]: 1.1 µM | Ratio of AUC 75/25% R/S to 25/75% R/S (fold increase in cooling activity) (philtrum skin [2]): 2.3

CCOC(=O)[C@@H](C)NC(=O)[C@@H]1C[C@H](C)CC[C@H]1C(C)C [CPS-369, (R)-2-[((1R,2S,5R)-2-isopropyl-5-methyl-cyclohexanecarbonyl)-amino]-propionic acid ethyl ester]
Cooling Activity % (relative to (R)-1,2-propanediol) (philtrum skin [2]; 10 mg/mL in 1,3-propanediol, inactive = did not exceed 2 units of coolness): inactive | Cooling Activity % (relative to (R)-1,2-propanediol) (philtrum skin [2]; [8]): 100% | Cooling Activity % (relative to (R)-1,2-propanediol) (philtrum skin [2]; 10 mg/mL in (S)-1,2-propanediol, based on AUC): 47% | Cooling Activity % (relative to (R)-1,2-propanediol) (philtrum skin [2]; 10 mg/mL in ethanol, inactive = did not exceed 2 units of coolness): inactive | Cooling Activity % (relative to (R)-1,2-propanediol) (philtrum skin [2]; 10 mg/mL in isopropanol, inactive = did not exceed 2 units of coolness): inactive | Cooling Activity % (relative to (R)-1,2-propanediol) (philtrum skin [2]; 10 mg/mL in n-propanol, inactive = did not exceed 2 units of coolness): inactive | Cooling Activity % (relative to (R)-1,2-propanediol) (philtrum skin [2]; 10 mg/mL in racemic 1,3-butanediol): 10%

CCCOC(=O)[C@@H](C)NC(=O)[C@@H]1C[C@H](C)CC[C@H]1C(C)C [CPS-410, (R)-2-[((1R,2S,5R)-2-isopropyl-5-methyl-cyclohexanecarbonyl)-amino]-propionic acid n-propyl ester]
sensations of coolness after application to scalp [6]: produced sensations of coolness

CCCCOC(=O)[C@@H](C)NC(=O)[C@@H]1C[C@H](C)CC[C@H]1C(C)C [CPS-412, (R)-2-[((1R,2S,5R)-2-isopropyl-5-methyl-cyclohexanecarbonyl)-amino]-propionic acid n-butyl ester]
sensations of coolness after application to scalp [6]: less noticeable

CCNC(=O)C1CC(C)CCC1C(C)C (stereo not drawn) [WS-3, 2-Isopropyl-5-methyl-cyclohexanecarboxylic acid ethylamide]
duration of robust cooling (philtrum skin [7]; 20 mg/mL in 97% (R)-1,2-propanediol-3% ethanol, with prickling and stinging sensations): 38 ± 3 min | cooling effect (philtrum skin [7]; 20 mg/mL in absolute ethanol): did not produce significant cooling

CCOC(=O)CNC(=O)[C@@H]1C[C@H](C)CC[C@H]1C(C)C [WS-5, [((1R,2S,5R)-2-isopropyl-5-methyl-cyclohexanecarbonyl)-amino]-acetic acid ethyl ester, reference compound]
cooling effect (philtrum skin [2]; 10 mg/mL in 100% ethanol): did not produce any cooling effect

CCO [ethanol]
inhibition of TRPM8 receptor response to (−)-menthol (TRPM8 receptor; 0.5% ethanol in the medium): 50% | TRPM8 receptor response to (−)-menthol (TRPM8 receptor; 3% concentration of ethanol): almost totally lost

(R)-(−)-1,2-propanediol [(R)-1,2-propanediol]
effect on ethanol inhibition of WS-5 cooling (philtrum skin [2]; added at 10%, 20% and 40% vol/vol to ethanolic solution of WS-5 10 mg/mL): reversed the ethanol inhibition in a dose-dependent relationship
